Entries after “also recorded” stand apart in the source; their conditions may differ. Where a name gives a salt, the structure may show the parent alone. Read-outs that look alike come from different tables or passages of the source.
Assays:
[1] = test system: lactoperoxidase oxidation (mediated by peroxide); test: Lactoperoxidase oxidation (mediated by peroxide); assay type: biochemical; conditions: physiological conditions (neutral pH)
From the text: (§1) In cell-based assays of PN-mediated cytotoxicity, Compound 1 is protective. […] Chemically, Compound 1 can also react stoichiometrically with peroxynitrite to form a para-nitro adduct. Without being bound by theory, by targeting and removing peroxynitrite and peroxide, Compound 1 can disrupt the ensuing cascades that lead to hypersensitivity (protein modification, ion channel hyperexcitation) thus providing a long duration event in terms of pain relief.

PN-mediated cytotoxicity = test: Cell-based assays of PN-mediated cytotoxicity
From the text: as §1

[2] = Rat single dose metabolism/excretion study (urine and feces)
[3] = test system: rat hind paw incision model; test: Brennan incisional pain model, prophylactic paradigm; assay type: in vivo
From the text: Two incisional pain models were used to assess Compound 1 effects on hyperalgesia. The first model is referred to as the Brennan model in which, under anesthesia, a 1 cm longitudinal incision to the skin and underlying fascia of a rat hindpaw is made. The second is a variation but is a more invasive procedure in which the skin and muscle are spread apart using forceps which creates a longer-lasting hypersensitivity.
Using the Brennan protocol and a prophylactic paradigm, Compound 1 (3 doses given PO) or vehicle was administered 15 min prior to incision. At the 24-, 48-, and 72-h time points post-incision, mechanical thresholds were obtained (manual von Frey filament, using up/down method).
In a subsequent experiment, the same paradigm was used with Compound 1 administered at a dose of 30 mg/kg PO along with positive control group consisting of celecoxib (30 mg/kg PO), morphine (10 mg/kg SC), and vehicle.

[4] = Cytotoxicity by lactate dehydrogenase (LDH) release; assay type: cell-based; conditions: human, HEK293 cells; read-out: percent cytotoxicity (LDH release)
OAT3 = target: T1, OAT3 (Homo sapiens, UniProt Q8TCC7); test: Inhibition of uptake (SLC) transporters; assay type: in vitro ADME
T1 construct: expressed in transfected cells; host or cells: HEK293 cells

[5] = Dose formulation stability (HPLC/UV); assay type: physicochemical
Method: Dose formulation analysis for all good laboratory practice (GLP) general toxicology studies was performed using a validated high-performance liquid chromatography (HPLC)/ultraviolet (UV) analytical method (2750-001-001 Dose Formulation Method 1). The vehicle used in the in vivo toxicology studies was 0.5% HPMC). The analytical method utilized HPLC with monitoring at 227 nm with an isocratic mobile phase of methanol with the column temperature set to 25° C. Linearity over a range of 1.0 to 200 mg/mL was observed. Dose formulations over this range were stable at room temperature for up to 13 days and were stable when stored frozen at −20° C. for up to 85 days.
In addition, formulation analysis for in vitro genetic toxicology studies was performed using a validated HPLC/UV analytical method (2750-001-001 Dose Formulation Method No. 2) with linearity over a range of 0.001 to 50 mg/mL. Dose formulations for in vitro assays were stable at room temperature for up to 1 day and when stored frozen at −20° C. for up to 45 days.

[6] = Red Blood Cell (RBC) partitioning; assay type: in vitro ADME; conditions: 60 min post-exposure
From the text: The compound distributed readily in tissues with a steady-state volume of distribution of 1.7 L/kg.

[7] = Dog single oral dose MTD study; assay type: in vivo; conditions: for concentration at 0.5 h / concentration at 1 h / concentration at 2 h: dog, plasma, N = 2, read-out: Average Compound 1 Concentration in dog plasma
Method: The objective of a third single dose study in dogs was to determine the maximum tolerated dose (MTD) of Compound 1 following a single oral (gavage) dose in male and female dogs. Using a pyramiding dose schedule, dose levels of 250, 350 and 500 mg/kg were administered to 2 dogs/sex (after a washout period of at least three days, the same animals were dosed with the next dose level). The dose volume was 10 mL/kg body weight. The vehicle was 0.5% aqueous HPMC.

[8] = Cytotoxicity by lactate dehydrogenase (LDH) release; assay type: cell-based; conditions: human, Caco-2 cells; read-out: percent cytotoxicity (LDH release)
[9] = Rat 7-day repeat dose PO study (toxicokinetics, MTD); assay type: in vivo; conditions: 2000 mg/kg
From the text: The vehicle was 0.5% HPMC.
Toxicokinetic (TK) results were as follows:

[10] = Dog single dose study, IV 10 mg/kg and oral 10 and 100 mg/kg; assay type: in vivo; conditions: for peak plasma concentration: fasted
Method: In another study, Compound 1 was administered IV as a single dose to fasted beagle dogs at 10 mg/kg and orally at 10 and 100 mg/kg. Compound 1 was rapidly and well absorbed orally, within 1 hr, reaching peak plasma concentrations of 15 and 108 μg/mL at 10 and 100 mg/kg doses, respectively. The compound distributed readily in tissues with a moderate steady-state volume of distribution (0.3 L/kg).

[11] = female, 250 mg/kg PO (Dose 1; Day 1), F
[12] = female, 350 mg/kg PO (Dose 3; Day 9), F
[13] = female, 500 mg/kg PO (Dose 2; Day 4), F
[14] = male, 250 mg/kg PO (Dose 1; Day 1), M
[15] = male, 350 mg/kg PO (Dose 3; Day 9), M
[16] = male, 500 mg/kg PO (Dose 2; Day 4), M
[17] = both, Sprague Dawley (Hsd:SD), rat, in vivo, po

T1 sequence (Q8TCC7 whole entry): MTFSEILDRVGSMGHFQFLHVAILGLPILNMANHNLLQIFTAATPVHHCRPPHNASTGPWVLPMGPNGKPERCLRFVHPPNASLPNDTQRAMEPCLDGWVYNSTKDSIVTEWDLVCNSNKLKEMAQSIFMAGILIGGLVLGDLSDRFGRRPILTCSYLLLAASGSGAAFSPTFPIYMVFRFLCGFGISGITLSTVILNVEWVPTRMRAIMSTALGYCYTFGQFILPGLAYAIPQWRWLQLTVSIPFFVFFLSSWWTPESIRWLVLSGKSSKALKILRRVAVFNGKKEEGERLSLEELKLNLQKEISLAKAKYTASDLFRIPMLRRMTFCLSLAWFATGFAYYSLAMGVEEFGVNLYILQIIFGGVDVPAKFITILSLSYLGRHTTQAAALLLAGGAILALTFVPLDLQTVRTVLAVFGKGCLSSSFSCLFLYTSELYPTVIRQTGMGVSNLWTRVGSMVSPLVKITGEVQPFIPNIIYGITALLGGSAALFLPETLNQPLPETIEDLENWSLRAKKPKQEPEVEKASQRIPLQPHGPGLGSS

**Q.** Which results are given for CC1(C)SC(Nc2ccccc2O)=N[C@@H]1C(=O)O [Compound 1, (R)-2-(2-hydroxyphenylamino)-5,5-dimethyl-4,5-dihydrothiazole-4-carboxylic acid mono-hydrochloride]?
**A.** removal of peroxynitrite in lactoperoxidase oxidation [1]: catalytically remove peroxynitrite; protection from PN-mediated cytotoxicity (PN-mediated cytotoxicity): protective; administered compound recovered unchanged [2]: 5-15%; reversal of hyperalgesia ([3]; 10 mg/kg PO, mono-hydrochloride): statistically significant reversal of hyperalgesia; also recorded: statistically significant effect; efficacy relative to vehicle ([3]; 30 mg/kg PO): full efficacy; dose dependence of anti-hyperalgesic effect ([3]; 3 doses PO, 24, 48, 72 h post-incision, mono-hydrochloride): reversal of hyperalgesia in a dose-dependent manner; mechanical withdrawal thresholds ([3]; 24-, 48-, 72-h post-incision, Compound 1 30 mg/kg PO, celecoxib 30 mg/kg PO, morphine 10 mg/kg SC): 32 to 35 g; dose required for significance ([3]; PO, single dose 15 min prior to incision): 10 mg/kg; duration of prevention of incisional hyperalgesia ([3]; single oral dose): at least 3 days; duration of effect on development of hyperalgesia ([3]; single oral dose, FIG. 10): prevented the development of hyperalgesia for three days; effect on development of mechanical hyperalgesia ([3]; single pre-surgical dose, 24 h, 48 h, 72 h post dose, FIG. 11): completely prevented development of mechanical hyperalgesia out through day 3; cytotoxicity [4]: < 25%; IC50 (OAT3; HEK293 cells, probe [3H]-estrone-3-sulfate (0.05 μM), 0.3-600 μM tested): 174 µM; transporter inhibition (OAT3; OAT3): weakly inhibits; dose formulation stability ([5]; 0.5% HPMC, 1.0 to 200 mg/mL, room temperature): up to 13 days; dose formulation stability ([5]; 0.5% HPMC, 1.0 to 200 mg/mL, stored frozen at −20° C.): up to 85 days; dose formulation stability ([5]; formulations for in vitro assays, 0.001 to 50 mg/mL, room temperature): up to 1 day; dose formulation stability ([5]; formulations for in vitro assays, 0.001 to 50 mg/mL, stored frozen at −20° C.): up to 45 days; KRBC/PL ([6]; dog): < 0.25; KRBC/PL ([6]; human): < 0.25; KRBC/PL ([6]; monkey): < 0.25; KRBC/PL ([6]; rat): < 0.25; concentration at 0.5 h [7, 11]: 28 µg/mL; concentration at 1 h [7, 11]: 54 µg/mL; concentration at 2 h [7, 11]: 46 µg/mL; concentration at 0.5 h [7, 12]: 67 µg/mL; concentration at 1 h [7, 12]: 154 µg/mL; concentration at 2 h [7, 12]: 119 µg/mL; concentration at 0.5 h [7, 13]: 87 µg/mL; concentration at 1 h [7, 13]: 136 µg/mL; concentration at 2 h [7, 13]: 124 µg/mL; concentration at 0.5 h [7, 14]: 71 µg/mL; concentration at 1 h [7, 14]: 110 µg/mL; concentration at 2 h [7, 14]: 91 µg/mL; concentration at 0.5 h [7, 15]: 134 µg/mL; concentration at 1 h [7, 15]: 220 µg/mL; concentration at 2 h [7, 15]: 153 µg/mL; concentration at 0.5 h [7, 16]: 111 µg/mL; concentration at 1 h [7, 16]: 191 µg/mL; concentration at 2 h [7, 16]: 193 µg/mL; emesis incidence ([7]; single dose 500 mg/kg): three of the four dosed animals; tolerability ([7]; single oral (gavage) dose 500 mg/kg): not tolerated; cytotoxicity [8]: < 25%; Cmax ([9]; both sexes, Sprague Dawley (Hsd:SD), rat, in vivo, po): 121 µg/mL; AUC(0-t) ([9]; both sexes, Sprague Dawley (Hsd:SD), rat, in vivo, po, AUC0-24 (mean)): 1370 µg·h/mL; Cmax ([9]; both sexes, Sprague Dawley (Hsd:SD), rat, in vivo, po, Seventh Daily Dose, 2000 mg/kg PO, read-out: Cmax (mean)): 119 µg/mL; half-life ([9]; both sexes, Sprague Dawley (Hsd:SD), rat, in vivo, po, T1/2 (mean)): 3.9 h; Tmax ([9]; both sexes, Sprague Dawley (Hsd:SD), rat, in vivo, po, Tmax (mean)): 2 h; MTD at 7 days ([9]; both sexes, Sprague-Dawley (Hsd:SD), rat, in vivo, oral gavage 7 days): 2000 mg/kg; AUC0-24 (mean) [9, 17]: 1609 µg·h/mL; T1/2 (mean) [9, 17]: 6.7 h; Tmax (mean) [9, 17]: 1 h; tolerability ([9]; female rats, oral gavage 7 days): tolerated; peak plasma concentration ([10]; 10 mg/kg oral): 15 µg/mL; peak plasma concentration ([10]; 100 mg/kg oral): 108 µg/mL; bioavailability ([10]; beagle, dog, plasma, po, both 10 and 100 mg/kg doses): 75%; time to peak plasma concentration ([10]; oral, fasted beagle dogs): ≤ 1 h
